One data set relates to S. aureus. The conditions noted are these: as reported in the literature; cited from earlier work.
A short description of data set [1]: Thermogravimetric analysis, thermal stability. The following applies: TG curve. It counts as physicochemical. On the procedure:
The amount of RFX loaded in DAMO/SBA is carefully determined by comparing the thermogravimetric (TG) traces of RFX/SBA and its parent material (DAMO-SBA), after normalizing the weight losses of the two curves at 100° C. (i.e., the temperature at which physisorbed water should be completely evaporated) (FIGS. 4A-4B). The comparison is done at 750° C., after most organic groups are removed from the samples. […] The decomposition profiles for pure RFX and copper(II) acetate, which is the salt used to immobilize Cu(II) ions into the material. As expected, RFX completely decomposes after 500° C. as it comprises mostly organic groups.

Values after ≈ are worked out from the molar mass of the structure shown.

Regarding `CC[C@H]1OC(=O)[C@H](C)[C@@H](O[C@H]2C[C@@](C)(OC)[C@@H](O)[C@H](C)O2)[C@H](C)[C@@H](O[C@@H]2O[C@H](C)C[C@H](N(C)C)[C@H]2O)[C@](C)(O)C[C@@H](C)C(=O)[C@H](C)[C@@H](O)[C@]1(C)O` [ERM, erythromycin], the “Minimum inhibitory concentrations (MICs)” value with S. aureus was 32 µg/mL (≈ 43.6 µM).
Turning to `O=C(Nc1ccc(Oc2ccc(Cl)cc2)c(Cl)c1)c1cc(I)cc(I)c1O` [RFX, N-[3-Chloro-4-(4-chlorophenoxy)phenyl]-2-hydroxy-3,5-diiodobenzamide], the “onset temperature of degradation” value in data set [1] was found to be 200 °C.
Turning to `COc1cc(Cc2cnc(N)nc2N)cc(OC)c1OC` [TRM, trimethoprim], in the data set with S. aureus, the “Minimum inhibitory concentrations (MICs)” value was 0.19 µg/mL (≈ 0.654 µM).

Source of the values: patent publication US20240180838A1, “NANOPARTICLE (NP) COMPOSITIONS AND METHODS OF USE THEREOF” (RUTGERS, THE STATE UNIVERSITY OF NEW JERSEY, priority 2022, published 2024).
